Test results taken from a melting point compilation (Tetko et al.; mined from patent text by program, amines drawn as free bases though some values may be those of a salt).

`CC(=O)c1c(C)[nH]c(CC(=O)O)c1C` showed a melting point of 195 to 205 °C. For `CCOC(=O)CNC(=O)c1nc2ccc(Cl)nn2c1C`, the melting point was 192 to 195 °C. Work on `CCOC(=O)CCCc1cn(C(c2ccccc2)(c2ccccc2)c2ccccc2)cn1` yielded a melting point of 134 °C. `COc1cc(CO)ccc1OCc1nc(-c2cccc(C#N)c2)oc1C` gave a melting point of 113 to 115 °C. Compound `Cc1oc(-c2ccccc2)nc1COc1ccc(/C=C/CO)cn1` has a melting point of 116 to 117 °C. For `CC(OCc1cc2nc(Cl)ccc2n1S(=O)(=O)c1ccc2ncsc2c1)C(=O)O` (centres undefined), the melting point was 179 °C. Compound `CC1(C)NC(SCc2ccccc2N)=NC1=S` has a melting point of 103 to 104 °C. In the case of `Cc1cc(SC2=C(O)CC(CCc3cc(Cl)c(N)c(Cl)c3)(C(C)C)OC2=O)c(C(C)(C)C)cc1N` (centres undefined), the melting point is reported as 103 to 107 °C. `COc1cccc(NS(=O)(=O)c2sccc2C2OCCO2)c1` showed a melting point of 112 to 114 °C. Work on `Cc1nc(N=CN(C)C)nc(N(C)C)n1` yielded a melting point of 61 °C. Compound `COC1=CC(=O)CN(C)C1` has a melting point of 71 to 72 °C. With `CS(=O)(=O)c1ccc(-c2ccc3cnc(Nc4ccc(N5CCCCC5)cc4)nn23)cc1` the melting point was 204 to 209 °C. With `CCCCCCCCc1ccc(CCC(CC)(COC(C)=O)NC(C)=O)cc1` (centres undefined) the melting point was 107 to 109 °C. `Cc1cc(COc2ccc(C(=O)NC[C@@H](C(=O)NO)N3CCN(Cc4ccc(F)cc4)CC3)cc2)c2ccccc2n1` gave a melting point of 167 °C. `CC(C(=O)O)c1ccc2oc(Cc3c(Cl)cccc3Cl)nc2c1` (centres undefined) gave a melting point of 122 to 124 °C. Work on `O=C(c1ccc(NC(=O)C(O)(C(F)(F)F)C(F)(F)F)cc1)c1ccccn1` yielded a melting point of 197 to 200 °C. Compound `CC(C)(C)c1ccc(Nc2ncc(-c3ccnc(Cl)n3)c3ccccc23)cc1` has a melting point of 257 to 258 °C. Work on `CC(=O)Nc1cc(C)c(N)c(C)c1` yielded a melting point of 148 °C. `CC(CCCC(C)(O)CO)C1CCC2C3CC=C4CC(O)CCC4(C)C3CCC12C` (centres undefined) gave a melting point of 173 to 176 °C. `CCCCCc1ccc2cc(Nc3ccc(O)cc3)ccc2c1` gave a melting point of 134 to 135 °C. For `CCC(=O)Oc1ccc2c(=O)c(C(=O)CC)c(CC)oc2c1`, the melting point was 84 °C. `NC(N)=Nc1nc(-c2cccc(CCl)n2)cs1` showed a melting point of 260 to 261 °C. `CCOC(=O)c1ccc(N=C(Nc2ccc(C(=O)OCC)cc2)c2cccc(Cl)c2)cc1` gave a melting point of 160 to 170 °C. `N#Cc1cnn2c1NCCC2` showed a melting point of 206 to 207 °C. In the case of `O=C1C=CC(=O)N1c1cccc(Oc2cccc(Oc3cccc(N4C(=O)C=CC4=O)c3)c2)c1`, the melting point is reported as 138 to 140 °C. With `N#Cc1ccc(OCCCOc2cccc(-c3cc4ccc(C#N)cc4o3)c2)cc1` the melting point was 128 to 129 °C. `NCCN1CCC(Nc2nc3ccccc3[nH]2)CC1` gave a melting point of 99.8 °C. For `CCc1cc(C(=O)c2ccccc2Cl)c(-n2c(C)nnc2CNC(=O)Nc2cccc(CC(=O)OC(C)(C)C)c2)s1`, the melting point was 178 to 179 °C. With `COc1ccc2c(c1)C(CCCNC(C)=O)CCC2` (centres undefined) the melting point was 71 to 73 °C. For `COC1(c2ccccc2)CCc2c(C)c(O)c(C)c(C)c2O1` (centres undefined), the melting point was 190 to 192 °C. Compound `CCCO[C@@H]1[C@@H](OC)[C@H](C)O[C@@H](ON=Cc2ccc(/C=C/c3ccc(OC(F)(F)F)cc3)cc2)[C@@H]1OC` has a melting point of 124 to 132 °C. Work on `Nc1nc2ccccc2c2c1nc1n2C(CCl)COC1` (centres undefined) yielded a melting point of 230 to 232 °C. For `COc1ccc(-c2ccc3c(c2)c2ccc(-c4ccc(OC)cc4)nc2n3S(=O)(=O)c2ccccc2)cc1`, the melting point was 206 to 208 °C. In the case of `COC(=O)c1cncn1C1c2ccsc2CC1(C)C` (centres undefined), the melting point is reported as 62 to 63 °C. With `Cc1cc(Cl)cc(C(=O)NCC(C)O)c1NC(=O)c1cc(C(F)(F)F)nn1-c1ncccc1Cl` (centres undefined) the melting point was 193 to 197 °C. In the case of `CCOC(=O)C(C)(C)Oc1ccc(CCc2cc(-c3ccc(C(F)(F)F)cc3)oc2C)cc1`, the melting point is reported as 87 to 88 °C. Work on `CC(O)Cc1cc2c(cc1C(=NNc1ncccn1)c1ccc([N+](=O)[O-])cc1)OCO2` (centres undefined) yielded a melting point of 125 to 127 °C. With `O=C(CO)Nc1nc(CN2CCC(c3c[nH]c4ccccc34)CC2)cs1` the melting point was 185 to 188 °C. `Cc1c(C(=O)Nc2ccc(N3CCC(N4CCOCC4)CC3)c(C#N)c2)cnn1-c1ccc(Br)cc1` showed a melting point of 250 to 252 °C. With `COc1ccc(CC(C)(C)C(=O)O)cc1C(=O)NCc1ccc(C(F)(F)F)cc1` the melting point was 151 to 152 °C. In the case of `CCCCOCCOc1ccc(-c2ccc(N3CCCCC3C)c(C=CC(=O)O)c2)cc1` (centres undefined), the melting point is reported as 106 to 108 °C. With `O=c1ccc(-c2c(-c3ccccc3)nn3ccccc23)nn1C1CCCCC1=NO` (centres undefined) the melting point was 238 to 240 °C. Compound `CCNC(=O)c1ccc(OCC(O)c2ccc3c(c2)C(C)(C)CCC3(C)C)cc1O` (centres undefined) has a melting point of 65 to 70 °C. Compound `CCCc1c(OCCCOc2ccc(Cl)c(Cl)c2)ccc2c1OC(CCC(=O)O)(CCC(=O)O)CC2=O` has a melting point of 136 to 137 °C. Compound `O=c1c(I)c(OCc2ccc(F)cc2F)ccn1Cc1cccc(F)c1` has a melting point of 164 to 167 °C. With `COc1ccc(SC2(Sc3ccc(OC)cc3)CCC3C4CCC5=CC(=O)C=CC5(C)C4(F)C(O)CC32C)cc1` (centres undefined) the melting point was 209 to 211 °C. For `Cc1cc(C(=O)N(C)C)ncc1C(c1c(F)ccc(F)c1F)S(=O)(=O)CCC(F)(F)F` (centres undefined), the melting point was 203 to 204 °C. With `Cc1c(C(=O)Cl)cccc1S(=O)(=O)CCCl` the melting point was 67 to 70 °C. `CCn1cnc2c(Nc3cccc(Cl)c3)nc(NCCN)nc21` showed a melting point of 79 to 80 °C. Compound `CC(=O)OCC(=O)N1C(C(N)=O)Cc2c([nH]c3ccccc23)C1c1ccccc1` (centres undefined) has a melting point of 195 to 197 °C. Compound `COc1ccc(CN(C)CCCOc2cccc(NC(=O)c3cccc4c(=O)c5cccc(OC)c5[nH]c34)c2)cc1OC` has a melting point of 124 °C. Work on `CCOC(=O)c1cnn2c1c(NC1CCCCC1)nc1ccccc12` yielded a melting point of 132 to 135 °C. `COC(=O)C=Cc1ccc(OCCCCl)cc1` showed a melting point of 58 to 59 °C. Work on `O=C(NO)[C@H]1[C@H](O)CCN1C(=O)c1ccc(OC(F)(F)F)cc1` yielded a melting point of 64 to 65 °C. Compound `COCCCNS(=O)(=O)Cc1cccc(Nc2cc(-c3ccccc3OC)ncn2)c1` has a melting point of 149 to 151 °C. With `CCOC(=O)c1c(O)c2ccc(C)nc2n(CC)c1=O` the melting point was 138 to 140 °C. Compound `CCC(=O)NCc1ccc2ccn(C3CCN(CCc4ccc(F)cc4)CC3)c2c1` has a melting point of 141 to 142 °C. In the case of `[O-][N+](O)=CCN=Nc1ccccc1`, the melting point is reported as 95 to 97 °C. With `Nc1nc2cccnc2c2c1ncn2CC1(O)CCOCC1` the melting point was 225 to 226 °C. With `CC(=O)Nc1c(C)c(C)c2c(c1C)CC(C)(C)O2` the melting point was 190 °C. For `CCn1nc(C)c2c(Cl)c(CCl)cnc21`, the melting point was 96 to 97 °C. Compound `COc1cccc2c(=O)c(OCC(=O)O)coc12` has a melting point of 215 to 217 °C. With `Cc1cc(C)c(CP(=O)(Cc2c(C)cc(C)cc2C)Cc2c(C)cc(C)cc2C)c(C)c1` the melting point was 232 to 233 °C. In the case of `Clc1cc(-c2ccnc(NCC3CCCO3)n2)ccn1` (centres undefined), the melting point is reported as 74 to 75 °C. `CC1C(c2ncc(Cl)cc2F)=NN(C)CS1=S` (centres undefined) showed a melting point of 107 to 112 °C. With `N#CCCCOc1cccc(OCc2ccc3ccccc3n2)c1` the melting point was 84 to 85 °C. With `O=C1CCC(c2ccccc2)(c2ccccc2)[C@@H]2CN(Cc3ccccc3)C[C@H]12` (racemic) the melting point was 132 °C. `Cc1nc2c(N)nc3ccccc3c2n1CCC(N)=O` gave a melting point of 237 to 239 °C. `Cc1cccc(-c2nc(N)c3ccccc3n2)n1` gave a melting point of 201 °C. `Brc1cccc(C=C2c3ccccc3CCc3ccccc32)c1` gave a melting point of 105 °C. In the case of `COC(=O)C(C(=O)OC)c1ccccc1C(=O)O`, the melting point is reported as 119 to 120 °C. Compound `CC1=C(CNC(=O)NC(C)C)c2cc(F)ccc2/C1=C\c1ccc(S(C)(=O)=O)cc1` has a melting point of 217 °C. `Cc1c(NCCN2C(=O)c3ccccc3C2=O)c(=O)n(C)c(=O)n1C` gave a melting point of 178 to 180 °C. Work on `COc1cc([N+](=O)[O-])c2nccc(C)c2c1Oc1ccc(Cl)cc1Cl` yielded a melting point of 166 to 168 °C. In the case of `N#Cc1cc(-c2ccccn2)nn1-c1ccc(NC(=O)c2ccncc2F)cc1`, the melting point is reported as 118 to 119 °C. In the case of `N#CC(=NOS(=O)(=O)CCCCl)c1cccs1`, the melting point is reported as 56 to 58 °C. In the case of `COC(=O)c1cc(F)ccc1Nc1ccnc2c(Cl)cccc12`, the melting point is reported as 196 °C. `CC=COC(=O)c1c(S(=O)(=O)NC(=O)Nc2nc(C)cc(C)n2)c(C)nn1C` showed a melting point of 180 to 183 °C. In the case of `CCC1(CCCCN2CCN(c3cccc(Cl)c3)CC2)C(=O)Nc2ccc(C)cc21` (centres undefined), the melting point is reported as 142 to 144 °C. For `CCOc1ccc(C(OC(C)=O)c2sccc2C=O)cc1OCC` (centres undefined), the melting point was 68 °C. Work on `CCOC(=O)c1cn(C2CC2)c2cc(Br)c(F)c(C)c2c1=O` yielded a melting point of 195 to 197 °C. Compound `Cc1cc(-c2cc3c(cc2C)OC(C)(C)C=C3)ccn1` has a melting point of 212 to 214 °C. In the case of `CCN(C(=O)C(C)(C)C)c1cccc(-c2ccc3nnc(C)n3n2)c1`, the melting point is reported as 168 to 170 °C. In the case of `CCOC(=S)Nc1ccccc1NC(=S)NC(=O)OC`, the melting point is reported as 172 °C. `CCOC(=O)C(C#N)=Cc1ccc([N+](=O)[O-])cc1C` gave a melting point of 180 to 210 °C. Work on `O=C1CCC(c2ccc(Cl)c([N+](=O)[O-])c2)=NN1` yielded a melting point of 190 to 193 °C. In the case of `COc1ccc(-c2ccc3c(c2)C=C(C(=O)Nc2ccc(CN(C)C4CCOCC4)cc2)CCS3(=O)=O)cc1`, the melting point is reported as 247 to 249 °C. In the case of `Cc1cc(C)c2cccc(OCc3c(Cl)ccc(S(=O)(=O)N4CCC[C@H]4C(=O)NCCCNC(=O)c4cccc(C=NN)c4)c3Cl)c2n1`, the melting point is reported as 116 to 120 °C. Compound `CC(=O)C(=Cc1ccc(S(C)(=O)=O)c(F)c1)C(C)=O` has a melting point of 140 to 143 °C. In the case of `CCOC(=O)c1c(C)nc(N2CCN(C)CC2)c([N+](=O)[O-])c1N`, the melting point is reported as 73 to 75 °C. `CCN(CC)c1ccc(-c2cc(-c3ccc(C(=O)O)cc3)ccc2CCCNC2CC2)cc1C(C)(C)C` gave a melting point of 189 °C. Work on `CC(=O)CC(=O)Nc1ccc(C)cc1C` yielded a melting point of 89 °C. Work on `O=C(COc1ccccc1)NCCO[N+](=O)[O-]` yielded a melting point of 61 to 62 °C. With `CCOC(=O)N1CCN(C2=Nc3ccccc3Oc3ccc(Cl)cc32)CC1` the melting point was 122 °C. With `O=C(O)c1ccc(-c2ccc(OCc3ccccc3)cc2)cc1` the melting point was > 300 °C. `CC(C)C(=O)Nc1cccc(-c2ccnc3c(C(=O)c4cccs4)cnn23)c1` gave a melting point of 180 to 181 °C. Work on `CN(C)c1ncnc2[nH]c(-c3ccc(Cn4ccnc4)cc3)cc12` yielded a melting point of 273 to 275 °C. Work on `CC(C)c1nc(CCOCc2ccccc2)n(Cc2cccc([N+](=O)[O-])c2)c1Sc1cc(Cl)cc(Cl)c1` yielded a melting point of 119 to 122 °C. For `CCCCSc1c[nH]nc1C1=CCCN(C)C1`, the melting point was 120 to 121 °C.
